# Results published in patent US20180235949A1 (priority 2015, published 2018).
# Like-named read-outs stand apart in the source and are kept apart here.
# What was measured:
# κ (KOP) = κ (KOP) (Rattus norvegicus, UniProt P34975); assay type: binding
# μ (MOP) (h) [1] = biological target: T1, μ (MOP) (h) (Homo sapiens, UniProt P35372); assay type: binding
# α2B (h) [2] = biological target: T2, α2B (h) (Homo sapiens, UniProt P18089); test: α2B (h) (antagonist radioligand) binding; settings: for nH: α2B (h) (antagonist radioligand)
# T2 sequence (P18089 1-450): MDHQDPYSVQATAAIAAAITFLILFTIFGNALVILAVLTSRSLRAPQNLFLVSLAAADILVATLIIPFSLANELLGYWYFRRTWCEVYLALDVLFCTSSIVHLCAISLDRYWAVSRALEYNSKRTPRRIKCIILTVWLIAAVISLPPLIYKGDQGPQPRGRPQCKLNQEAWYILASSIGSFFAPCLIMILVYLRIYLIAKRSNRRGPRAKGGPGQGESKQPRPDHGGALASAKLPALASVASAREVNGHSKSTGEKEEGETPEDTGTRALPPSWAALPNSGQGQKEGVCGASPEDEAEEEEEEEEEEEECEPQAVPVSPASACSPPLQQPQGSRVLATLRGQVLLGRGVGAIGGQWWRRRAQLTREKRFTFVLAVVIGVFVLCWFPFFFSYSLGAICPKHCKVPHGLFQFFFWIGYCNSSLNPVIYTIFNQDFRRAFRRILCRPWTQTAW
# Procedure: (§1) Representative compounds were tested to determine IC50 or EC50 in receptor functional assays. One or more of the procedures disclosed in the following references were used: Devedjian, J. C. et al., Eur. J. Pharmacol., 1994, 252, 43-49; Wang, J. B. et al., FEBS Lett., 1994, 338, 217-222; Simonin, F. et al., Mol. Pharmacol., 1994, 46, 1015-1021; Meng, F. et al., Proc. Natl. Acad. Sci. U.S.A., 1993, 90, 9954-9958; Avidor-Reiss, T. et al., FEBS Lett., 1995, 361, 70-74; Eason, M. G. et al., J. Biol. Chem., 1992, 267, 15795-15801; Law, P. Y. et al., Mol. Pharmacol., 1993, 43, 684-693. In each experiment and if applicable, the respective reference compound was tested concurrently with the test compounds. Compound binding was calculated as a % inhibition of the binding of a radioactively labeled ligand specific for each target. Cellular agonist effect was calculated as a % of control response to a known reference agonist for each target and cellular antagonist effect was calculated as a % inhibition of control reference agonist response for each target. Only the calculable IC50 and EC50 are reported below.
# δ2 (DOP) (h) = δ2 (DOP) (h) (Homo sapiens, UniProt P41143); assay type: binding
# δ2 (DOP) (h), sequence (P41143 whole entry): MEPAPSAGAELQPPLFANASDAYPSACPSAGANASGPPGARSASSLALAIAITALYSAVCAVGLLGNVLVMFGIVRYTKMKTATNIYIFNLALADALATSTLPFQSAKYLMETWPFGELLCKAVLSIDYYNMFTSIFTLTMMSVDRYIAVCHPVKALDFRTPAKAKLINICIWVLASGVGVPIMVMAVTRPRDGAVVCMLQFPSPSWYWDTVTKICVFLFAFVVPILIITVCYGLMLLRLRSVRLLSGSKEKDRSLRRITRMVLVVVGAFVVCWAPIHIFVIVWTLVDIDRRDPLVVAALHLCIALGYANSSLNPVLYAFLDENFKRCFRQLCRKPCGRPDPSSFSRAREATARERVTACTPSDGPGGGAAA
# α2B (h) [3] = biological target: T2, α2B (h); test: α2B (h) (antagonist effect) cellular functional assay; assay type: cell-based
# Procedure: as §1
# μ (MOP) (h) [4] = biological target: T1, μ (MOP) (h); assay type: cell-based
# CYP2B6 [5] = settings: human hepatocytes, 72 hr, at 100 μM
# CYP2D6 = biological target: T3, CYP2D6 (Homo sapiens, UniProt P10635); test: Time dependent inhibition of CYP2D6 (dextromethorphan; IC50 shift); assay type: in vitro ADME
# T3 construct: from tissue
# T3 sequence (P10635 whole entry): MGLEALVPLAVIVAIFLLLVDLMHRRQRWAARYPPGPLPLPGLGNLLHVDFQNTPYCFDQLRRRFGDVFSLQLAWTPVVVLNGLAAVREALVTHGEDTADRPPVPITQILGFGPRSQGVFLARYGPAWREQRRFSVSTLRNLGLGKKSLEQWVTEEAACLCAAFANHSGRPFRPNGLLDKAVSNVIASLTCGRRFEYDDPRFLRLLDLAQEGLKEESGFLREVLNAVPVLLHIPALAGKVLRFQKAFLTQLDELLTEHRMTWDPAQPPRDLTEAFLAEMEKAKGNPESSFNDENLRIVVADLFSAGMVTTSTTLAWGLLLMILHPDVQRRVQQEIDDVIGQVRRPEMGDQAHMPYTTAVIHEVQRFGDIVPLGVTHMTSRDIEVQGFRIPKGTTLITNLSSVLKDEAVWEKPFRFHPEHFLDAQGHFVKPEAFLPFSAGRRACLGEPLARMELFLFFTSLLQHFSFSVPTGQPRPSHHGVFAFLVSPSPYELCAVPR
# Procedure: Six test compound concentrations (0.1, 0.25, 1, 2.5, 10, 25 μM; final DMSO concentration 0.25%, final microsome concentration 0.5 mg/mL) were either pre-incubated for 30 min in the absence and presence of NADPH or undergo a 0 min pre-incubation. The probe substrate dextromethorphan (5 μM) and NADPH (1 mM) were then added (final DMSO concentration 0.3%) and the samples incubated for 5 min at 37° C. The selective time dependent CYP2D6 inhibitor, paroxetine, was screened alongside the test compounds as a positive control. The reactions were terminated by the addition of an aliquot of the incubation into methanol. The samples were centrifuged at 2500 rpm for 30 min at 4° C., and aliquots of the supernatant are diluted with formic acid in deionised water (final concentration 0.1%) containing internal standard prior to analysis of dextrorphan by LC-MS/MS.
# CYP3A4 [6] = biological target: T4, CYP3A4 (Homo sapiens, UniProt P08684); settings: 0.1-25 μM, human liver microsomes, substrate testosterone
# T4 sequence (P08684 whole entry): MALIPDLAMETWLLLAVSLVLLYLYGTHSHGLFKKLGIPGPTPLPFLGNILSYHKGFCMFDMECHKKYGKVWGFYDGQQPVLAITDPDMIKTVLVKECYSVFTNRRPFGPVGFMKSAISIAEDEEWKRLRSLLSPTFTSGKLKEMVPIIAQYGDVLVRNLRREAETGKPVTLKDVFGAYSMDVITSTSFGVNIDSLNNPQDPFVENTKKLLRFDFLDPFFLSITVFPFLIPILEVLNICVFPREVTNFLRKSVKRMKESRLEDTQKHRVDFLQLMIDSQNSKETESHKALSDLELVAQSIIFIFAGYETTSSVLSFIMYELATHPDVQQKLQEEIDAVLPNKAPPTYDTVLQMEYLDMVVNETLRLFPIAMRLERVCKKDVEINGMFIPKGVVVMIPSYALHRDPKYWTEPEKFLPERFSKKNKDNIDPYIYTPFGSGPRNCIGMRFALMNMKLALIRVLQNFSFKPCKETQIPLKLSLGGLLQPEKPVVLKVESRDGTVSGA
# [7] = Toxicity in animal models; assay type: in vivo; settings: many animal models, even at high concentrations
# [8] = Brain tissue binding, equilibrium dialysis, mouse; settings: 5 μM
# CYP2C19 = CYP2C19 (Homo sapiens, UniProt P33261); test: CYP2C19 inhibition, human liver microsomes (mephenytoin); settings: up to 25 micromolar
# CYP2C19, sequence (P33261 whole entry): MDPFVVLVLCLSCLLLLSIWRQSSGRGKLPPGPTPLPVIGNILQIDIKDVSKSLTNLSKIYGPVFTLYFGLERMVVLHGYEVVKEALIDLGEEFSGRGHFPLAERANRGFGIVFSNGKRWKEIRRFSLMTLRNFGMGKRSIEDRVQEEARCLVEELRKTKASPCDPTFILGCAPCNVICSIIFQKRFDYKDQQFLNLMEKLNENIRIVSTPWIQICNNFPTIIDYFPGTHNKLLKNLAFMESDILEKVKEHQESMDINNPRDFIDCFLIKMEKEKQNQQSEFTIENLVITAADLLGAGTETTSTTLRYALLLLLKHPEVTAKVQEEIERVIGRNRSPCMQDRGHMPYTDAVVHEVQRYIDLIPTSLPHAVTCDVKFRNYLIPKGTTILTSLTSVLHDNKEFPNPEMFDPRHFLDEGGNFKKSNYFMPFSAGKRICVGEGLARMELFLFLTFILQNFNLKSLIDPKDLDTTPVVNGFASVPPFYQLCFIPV
# CYP2C8 = CYP2C8 (Homo sapiens, UniProt P10632); test: CYP2C8 inhibition, human liver microsomes (paclitaxel); settings: 0.1-25 μM
# CYP2C8, sequence (P10632 whole entry): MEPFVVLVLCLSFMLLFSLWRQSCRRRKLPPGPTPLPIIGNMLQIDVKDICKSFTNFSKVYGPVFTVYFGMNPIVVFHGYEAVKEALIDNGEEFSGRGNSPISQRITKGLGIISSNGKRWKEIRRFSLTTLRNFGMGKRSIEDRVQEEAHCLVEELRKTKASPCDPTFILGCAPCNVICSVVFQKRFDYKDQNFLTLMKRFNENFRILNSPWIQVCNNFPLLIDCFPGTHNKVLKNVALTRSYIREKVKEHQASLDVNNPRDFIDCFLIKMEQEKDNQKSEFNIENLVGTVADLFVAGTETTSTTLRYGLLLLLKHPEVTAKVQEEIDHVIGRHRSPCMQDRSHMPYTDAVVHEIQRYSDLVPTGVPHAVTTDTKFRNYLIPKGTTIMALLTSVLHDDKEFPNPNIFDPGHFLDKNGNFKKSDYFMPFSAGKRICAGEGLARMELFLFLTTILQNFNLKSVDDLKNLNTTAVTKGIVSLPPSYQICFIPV
# CYP2C9 = CYP2C9 (Homo sapiens, UniProt P11712); test: CYP2C9 inhibition, human liver microsomes (tolbutamide); settings: 0.1-25 μM
# CYP2C9, sequence (P11712 whole entry): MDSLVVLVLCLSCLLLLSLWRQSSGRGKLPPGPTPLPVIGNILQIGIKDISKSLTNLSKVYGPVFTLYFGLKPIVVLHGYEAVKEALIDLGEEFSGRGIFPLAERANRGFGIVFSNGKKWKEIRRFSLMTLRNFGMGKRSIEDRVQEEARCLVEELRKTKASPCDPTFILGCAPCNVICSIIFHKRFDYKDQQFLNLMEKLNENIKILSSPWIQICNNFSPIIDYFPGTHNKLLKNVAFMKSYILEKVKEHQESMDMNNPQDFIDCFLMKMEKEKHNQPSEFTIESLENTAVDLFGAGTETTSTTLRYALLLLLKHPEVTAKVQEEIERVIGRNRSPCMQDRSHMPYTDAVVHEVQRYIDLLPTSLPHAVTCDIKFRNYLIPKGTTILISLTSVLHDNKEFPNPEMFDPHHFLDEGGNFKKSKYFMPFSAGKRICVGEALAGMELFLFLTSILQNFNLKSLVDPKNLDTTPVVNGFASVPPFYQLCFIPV
# hERG potassium channel = hERG potassium channel (Homo sapiens, UniProt Q12809); test: hERG channel inhibition, IonWorks automated patch clamp, CHO-hERG cells; settings: up to 25 micromolar
# [9] = Caco-2 permeability (bi-directional); settings: human, Caco-2, pH 6.8
# Caco-2 cells = test: Caco-2 permeability (bi-directional); settings: 10 μM, pH gradient (pH 6.8/7.4)
# CYP2B6 [10] = biological target: CYP2B6 (Homo sapiens, UniProt P20813); settings: 0.1-25 μM, human liver microsomes, bupropion
# CYP2B6 (Homo sapiens, UniProt P20813), sequence (P20813 whole entry): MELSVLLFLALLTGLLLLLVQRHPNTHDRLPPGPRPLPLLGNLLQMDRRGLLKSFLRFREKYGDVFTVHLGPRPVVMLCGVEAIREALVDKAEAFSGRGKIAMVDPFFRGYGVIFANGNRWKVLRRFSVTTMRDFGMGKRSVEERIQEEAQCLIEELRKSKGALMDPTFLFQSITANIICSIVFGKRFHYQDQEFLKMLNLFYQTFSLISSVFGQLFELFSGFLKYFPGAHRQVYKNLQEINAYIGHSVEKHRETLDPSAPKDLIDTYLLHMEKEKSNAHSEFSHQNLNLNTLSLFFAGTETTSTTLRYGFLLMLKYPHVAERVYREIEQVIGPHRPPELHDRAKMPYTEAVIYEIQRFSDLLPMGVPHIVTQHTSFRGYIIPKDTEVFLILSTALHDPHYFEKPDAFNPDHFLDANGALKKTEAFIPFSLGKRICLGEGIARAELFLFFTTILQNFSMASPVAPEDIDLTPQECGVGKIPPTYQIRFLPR
# [11] = Binding to plasma proteins; assay type: in vitro ADME; settings: very small species differences
# [12] = test system: L-dopa-induced dyskinesia; test: L-dopa-induced dyskinesia, comparison with amantadine; assay type: in vivo; settings: model not specified
# MDR1-MDCK cells = test: MDR1-MDCK permeability and P-gp substrate identification (bi-directional); assay type: in vitro ADME, canine; settings: 10 μM, MDR1-MDCK, pH 7.4
# Procedure: (§2) Cells were then incubated with HBSS at the desired pH in both apical and basolateral compartments for 40 min to stabilize physiological parameters.
# (§3) The fluorescent integrity marker lucifer yellow was also included in the dosing solution. […] Analytical standards were prepared from test compound DMSO dilutions and transferred to buffer, maintaining a 1% v/v DMSO concentration.
# (§4) For assessment of A-B permeability, HBSS was removed from the apical compartment and replaced with test compound dosing solution. […] For assessment of B-A permeability, HBSS was removed from the companion plate and replaced with test compound dosing solution. […] Test compound permeability was assessed in duplicate. Compounds of known permeability characteristics were run as controls on each assay plate. […] Cyprotex generic analytical conditions were used. The starting concentration (C0) was determined from the dosing solution and the experimental recovery calculated from C0 and both apical and basolateral compartment concentrations.
# (§5) The integrity of the monolayer throughout the experiment was checked by monitoring lucifer yellow permeation using fluorimetric analysis.
# P-glycoprotein (MDR1) = test: as above; assay type: in vitro ADME, canine; settings: dog, MDCK-MDR1, pH 7.4; minus inhibitor (no cyclosporin A)
# Procedure: as §2, §3, §4, §5
# [13] = test system: L-DOPA induced dyskinesias; test: L-DOPA induced dyskinesias, Primate in vivo model
# [14] = test system: L-DOPA induced dyskinesias; test: L-DOPA induced dyskinesias, Rodent in vivo model
# CYP3A4 [15] = settings: human hepatocytes, 72 hr, any concentration tested
# CYP3A4 [16] = biological target: T4, CYP3A4; settings: 0.1-25 μM, human liver microsomes, substrate midazolam
# CYP1A2 [17] = biological target: CYP1A2 (Homo sapiens, UniProt P05177); settings: 0.1-25 μM, human liver microsomes, phenacetin
# CYP1A2 (Homo sapiens, UniProt P05177), sequence (P05177 whole entry): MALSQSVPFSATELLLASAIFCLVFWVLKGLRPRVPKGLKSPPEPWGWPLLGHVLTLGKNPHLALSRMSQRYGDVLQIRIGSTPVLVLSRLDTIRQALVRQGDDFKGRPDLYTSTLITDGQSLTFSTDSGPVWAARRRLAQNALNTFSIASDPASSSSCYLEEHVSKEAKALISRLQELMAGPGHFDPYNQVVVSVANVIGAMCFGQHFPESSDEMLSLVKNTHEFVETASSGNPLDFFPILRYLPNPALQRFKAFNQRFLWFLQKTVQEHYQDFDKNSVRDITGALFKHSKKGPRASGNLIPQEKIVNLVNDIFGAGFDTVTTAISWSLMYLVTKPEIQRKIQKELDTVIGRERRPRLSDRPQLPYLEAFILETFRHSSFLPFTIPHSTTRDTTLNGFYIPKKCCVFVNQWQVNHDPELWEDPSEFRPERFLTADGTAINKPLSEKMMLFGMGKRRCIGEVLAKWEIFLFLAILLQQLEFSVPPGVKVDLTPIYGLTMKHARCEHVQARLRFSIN
# [18] = Bioavailability and stability evaluation; settings: summary
# CYP1A2 [19] = settings: human hepatocytes, 72 hr, any concentration tested
# μ (MOP) (h) [20] = biological target: T1, μ (MOP) (h); test: μ (MOP) (h) (agonist effect) cellular functional assay; assay type: cell-based
# Procedure: as §1
# κ (KOP), sequence (P34975 whole entry): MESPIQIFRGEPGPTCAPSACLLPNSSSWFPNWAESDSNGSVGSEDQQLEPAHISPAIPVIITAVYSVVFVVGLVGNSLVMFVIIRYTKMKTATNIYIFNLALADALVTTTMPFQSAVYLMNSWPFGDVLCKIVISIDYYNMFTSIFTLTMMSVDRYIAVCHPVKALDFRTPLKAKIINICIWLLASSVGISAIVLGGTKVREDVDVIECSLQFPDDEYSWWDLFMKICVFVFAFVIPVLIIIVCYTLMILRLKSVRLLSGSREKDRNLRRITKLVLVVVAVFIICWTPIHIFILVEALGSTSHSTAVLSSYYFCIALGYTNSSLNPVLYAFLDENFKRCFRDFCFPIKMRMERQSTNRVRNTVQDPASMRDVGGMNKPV
# T1 sequence (P35372 whole entry): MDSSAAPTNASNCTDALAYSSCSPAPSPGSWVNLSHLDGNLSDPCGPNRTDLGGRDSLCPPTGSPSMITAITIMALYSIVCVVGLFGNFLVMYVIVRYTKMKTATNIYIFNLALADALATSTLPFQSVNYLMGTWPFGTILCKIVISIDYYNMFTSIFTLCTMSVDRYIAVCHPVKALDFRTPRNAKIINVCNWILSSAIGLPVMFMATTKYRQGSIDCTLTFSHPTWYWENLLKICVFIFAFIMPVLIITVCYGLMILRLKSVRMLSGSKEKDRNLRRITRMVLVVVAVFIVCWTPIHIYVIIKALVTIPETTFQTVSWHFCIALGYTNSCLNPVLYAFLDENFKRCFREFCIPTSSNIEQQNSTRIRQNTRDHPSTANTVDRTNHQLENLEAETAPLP
smiles,measurement,setting,value
O=C(NC1CCN(CCc2ccccc2)CC1)c1ccco1 [N-(1-phenethylpiperidin-4-yl)furan-2-carboxamide],nH,κ (KOP),1.1
same,nH,μ (MOP) (h) [1],0.8
same,IC50,α2B (h) [2],4.6 µM
same,Ki,α2B (h) [2],3 µM
same,nH,α2B (h) [2],0.7
same,nH,δ2 (DOP) (h),1
same,IC50,α2B (h) [3],380 µM
same,Kb,α2B (h) [3],50 µM
CCC(=O)NC1CCN(CCc2cccs2)CC1 [N-(1-(2-(thiophen-2-yl)ethyl)piperidin-4-yl)propionamide],nH,κ (KOP),0.6
same,IC50,α2B (h) [2],11 µM
same,Ki,α2B (h) [2],7.6 µM
same,nH,α2B (h) [2],1.2
same,nH,δ2 (DOP) (h),0.9
same,nH,μ (MOP) (h) [4],0.6
same,IC50,α2B (h) [3],440 µM
same,Kb,α2B (h) [3],57 µM
O=C(NC1CCN(CCc2ccccc2)CC1)c1ccccc1 [N-(1-phenethylpiperidin-4-yl)benzamide],nH,κ (KOP),0.6
same,nH,μ (MOP) (h) [1],0.9
same,IC50,α2B (h) [2],4 µM
same,Ki,α2B (h) [2],0.27 µM
same,nH,α2B (h) [2],1.3
same,nH,δ2 (DOP) (h),0.7
same,IC50,α2B (h) [3],350 µM
same,Kb,α2B (h) [3],46 µM
"CCC(=O)NC1CCN(CCc2ccccc2)CC1 [HCV-3, N-(1-phenethylpiperidin-4-yl)propionamide]",CYP2B6 mRNA expression,CYP2B6 [5],"slight, yet statistically significant decrease"
same,CYP2D6 inhibition,"CYP2D6; 25 μM, 30 minute plus NADPH incubation",approximately 40%
same,time-dependent CYP2D6 inhibition (conclusion),"CYP2D6; IC50 shift, 30 min pre-incubation with/without NADPH",no evidence of time-dependent CYP2D6 inhibition
same,IC50 at 5 min,"CYP2D6; human, microsomes, probe dextromethorphan (5 µM), 0 minute incubation",> 25 µM
same,"inhibition at 5 min, 25 µM","CYP2D6; human, microsomes, probe dextromethorphan (5 µM), 25 μM, 0 minute incubation",~40%
same,CYP3A4 inhibition,CYP3A4 [6],No significant inhibition
same,toxicity,[7],virtually no toxicity
same,binding,[8],no binding at all could be detected
same,CYP2C19 IC50,CYP2C19,too weak to generate an IC50 value
same,CYP2C8 inhibition,CYP2C8,No significant inhibition
same,CYP2C9 inhibition,CYP2C9,No significant inhibition
same,hERG inhibition activity (conclusion),hERG potassium channel,weak or no significant hERG inhibition activity
same,"efflux ratio at 120 min, 10 µM",[9],2.7
same,permeability in the Caco-2 assay,Caco-2 cells,highly permeable in both directions
same,CYP2B6 inhibition,CYP2B6 [10],No significant inhibition
same,binding to plasma proteins,[11],"weak, or no noticeable binding"
same,effectiveness compared with amantadine,[12],significantly more effective than amantadine
same,permeability in the MDCK assay,MDR1-MDCK cells,highly permeable
same,"efflux ratio at 60 min, 10 µM",P-glycoprotein (MDR1),1.48
same,inhibition of L-DOPA induced dyskinesias,[13],significant inhibition
same,inhibition of L-DOPA induced dyskinesias,[14],significant inhibition
same,CYP3A4 mRNA expression,CYP3A4 [15],didn't cause a statistically significant change
same,CYP3A4 inhibition,CYP3A4 [16],No significant inhibition
same,CYP1A2 inhibition,CYP1A2 [17],No significant inhibition
same,bioavailability,[18],highly bioavailable
same,CYP1A2 mRNA expression,CYP1A2 [19],didn't cause a statistically significant change
O=C(CCCCCCCBr)NC1CCN(CCc2ccccc2)CC1 [8-bromo-N-(1-phenethylpiperidin-4-yl)octanamide],nH,κ (KOP),0.5
same,IC50,α2B (h) [2],5.7 µM
same,Ki,α2B (h) [2],3.8 µM
same,nH,α2B (h) [2],0.8
same,nH,μ (MOP) (h) [4],0.4
same,IC50,α2B (h) [3],360 µM
same,Kb,α2B (h) [3],46 µM
CCC(=O)NC1CCN(CCC(=O)OC)CC1 [Methyl 3-(4-propionamidopiperidin-1-yl)propanoate],nH,κ (KOP),0.8
same,nH,μ (MOP) (h) [1],0.5
same,IC50,α2B (h) [2],260 µM
same,Ki,α2B (h) [2],180 µM
same,nH,α2B (h) [2],1
same,EC50,μ (MOP) (h) [20],290 µM
O=C(NC1CCN(CCc2ccccc2)CC1)c1ccoc1 [N-(1-phenethylpiperidin-4-yl)furan-3-carboxamide],nH,κ (KOP),1.1
same,nH,μ (MOP) (h) [1],0.8
same,IC50,α2B (h) [2],3 µM
same,Ki,α2B (h) [2],3 µM
same,nH,α2B (h) [2],0.7
same,nH,δ2 (DOP) (h),1
same,IC50,α2B (h) [3],230 µM
same,Kb,α2B (h) [3],50 µM
